Measurements reported in patent US10370401B2, “Substituted nucleosides, nucleotides and analogs thereof” (Alios BioPharma, Inc., priority 2013, dated 2019).
Where two headings read alike, the source gives them in different places.

How the values were obtained:
[1] = system: Human rhinovirus 1B; assay: Picornavirus assay (CPE, CellTiter-Glo, HeLa-OHIO cells); assay type: cell-based; conditions: Rhinovirus A, 96 h
[2] = system: subgenomic HCV replicon; assay: HCV replicon assay (Huh-7, luciferase reporter); assay type: cell-based; conditions: Hepatitis C virus
[3] = biological target: dengue virus NS5 polymerase domain (DENVpol, serotype 2, New Guinea C strain) (Dengue virus type 2, UniProt P14340); assay: Dengue virus polymerase inhibition assay; assay type: biochemical; conditions: DENVpol serotype 2, 3 hours at 30° C., mean of several independent experiments
Experimental: The enzyme activity of dengue virus NS5 polymerase domain (DENVpol, serotype 2, New Guinea C strain) was measured as an incorporation of tritiated NMP into acid-insoluble RNA products. DENVpol assay reactions contained 100 nM recombinant enzyme, 50 nM heteropolymeric RNA, about 0.5 μCi tritiated NTP, 0.33 μM of competing cold NTP, 40 mM HEPES (pH 7.5), 3 mM dithiothreitol, and 2 mM MgCl2. Standard reactions were incubated for 3 hours at 30° C., in the presence of increasing concentration of inhibitor. At the end of the reaction, RNA was precipitated with 10% TCA, and acid-insoluble RNA products were filtered on a size exclusion 96-well plate. After washing of the plate, scintillation liquid was added and radiolabeled RNA products were detected according to standard procedures with a Trilux Topcount scintillation counter. The compound concentration at which the enzyme-catalyzed rate was reduced by 50% (IC50) was calculated by fitting the data to a non-linear regression (sigmoidal).

[4] = biological target: human rhinovirus 16 polymerase (HRV16pol) (Human rhinovirus 16, UniProt Q82122); assay: biochemical; conditions: HRV16pol, 2.5 h at 30° C., mean of several independent experiments; read-out: IC50
[5] = biological target: NS5B570-Con1 (Delta-21) (Hepatitis C virus genotype 1b, UniProt Q9WMX2); assay: biochemical; parameters: species or system HCV
[6] = Human rhinovirus 1B, HeLa-OHIO cells, 4 d at 33° C., read-out: EC50
[7] = Huh-7 HCV replicon cells, luciferase, 72 hours, read-out: EC50

Sequence of human rhinovirus 16 polymerase (HRV16pol) (Q82122 1694-2153 limits assumed): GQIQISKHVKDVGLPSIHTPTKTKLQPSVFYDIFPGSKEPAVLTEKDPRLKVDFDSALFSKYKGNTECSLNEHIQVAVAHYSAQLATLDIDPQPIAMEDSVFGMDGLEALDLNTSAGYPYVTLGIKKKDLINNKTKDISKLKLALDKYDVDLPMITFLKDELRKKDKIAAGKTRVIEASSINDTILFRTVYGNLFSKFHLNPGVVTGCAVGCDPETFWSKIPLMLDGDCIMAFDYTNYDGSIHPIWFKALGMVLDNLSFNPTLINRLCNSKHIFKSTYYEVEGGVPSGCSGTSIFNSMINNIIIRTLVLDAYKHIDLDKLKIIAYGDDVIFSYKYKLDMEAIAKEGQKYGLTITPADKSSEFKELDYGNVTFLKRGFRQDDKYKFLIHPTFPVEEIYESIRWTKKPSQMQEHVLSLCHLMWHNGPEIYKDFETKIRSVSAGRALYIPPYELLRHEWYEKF

| Compound | EC50 [1, 6] [µM] | EC50 [2, 7] [µM] | IC50 [4] [µM] | IC50 [5] [µM] | other results |
| --- | --- | --- | --- | --- | --- |
| CCOc1nc(N)nc2c1ncn2[C@@H]1O[C@](F)(COP(=O)(N[C@@H](C)C(=O)OCC(C)(C)C)Oc2ccccc2)[C@@H](F)[C@@]1(C)O (stereo partly drawn) [Compound 21] | – | – | – | – | EC50 [1]: < 1 µM; EC50 ([2]; Huh-7, 72 h): 1 to 10 µM |
| CCOc1nc(N)nc2c1ncn2[C@@H]1O[C@](F)(COP(=O)(N[C@@H](C)C(=O)OC(C)C)Oc2ccccc2)[C@@H](F)[C@@]1(C)O (stereo partly drawn) [Compound 22] | – | – | – | – | EC50 [1]: 1 to 10 µM; EC50 ([2]; Huh-7, 72 h): 1 to 10 µM |
| CCOc1nc(N)nc2c1ncn2[C@@H]1O[C@](CF)(COP(=O)(N[C@@H](C)C(=O)OC2CCCCC2)Oc2ccccc2)[C@@H](O)[C@@]1(C)O (stereo partly drawn) [Compound 36] | – | – | – | – | EC50 [1]: < 1 µM; EC50 ([2]; Huh-7, 72 h): < 1 µM |
| CC(C)OC(=O)OCOP(=O)(OCOC(=O)OC(C)C)OC[C@@]1(CCl)O[C@@H](n2ccc(=O)[nH]c2=O)[C@](C)(O)[C@@H]1O [Compound 43] | 10 to 100 | < 1 | – | – | – |
| CC(C)OC(=O)OCOP(=O)(OCOC(=O)OC(C)C)OC[C@@]1(CF)O[C@@H](n2ccc(=O)n(COC(=O)C(N)C(C)C)c2=O)[C@](C)(O)[C@@H]1O (stereo partly drawn) [Compound 52] | – | – | – | – | EC50 [1]: < 1 µM; EC50 ([2]; Huh-7, 72 h): < 1 µM |
| CCOc1nc(N)nc2c1ncn2[C@@H]1O[C@](F)(COP(=O)(OCOC(=O)OC(C)C)OCOC(=O)OC(C)C)[C@@H](F)[C@@]1(C)O [Compound 57] | < 1 | < 1 | – | – | – |
| C#C[C@@]1(O)[C@H](O)[C@@](CF)(COP(=O)(OCOC(=O)OC(C)C)OCOC(=O)OC(C)C)O[C@H]1n1cnc2c(N)ncnc21 [Compound 63] | < 1 | 1 to 10 | – | – | – |
| C#C[C@@]1(O)[C@H](O)[C@@](CCl)(COP(=O)(OCOC(=O)OC(C)C)OCOC(=O)OC(C)C)O[C@H]1n1cnc2c(N)ncnc21 [Compound 64] | 1 to 10 | 10 to 100 | – | – | – |
| COC(=O)OCOP(=O)(OCOC(=O)OC)OC[C@@]1(CF)O[C@@H](n2ccc(=O)[nH]c2=O)[C@](C)(O)[C@@H]1O [Compound 65] | 10 to 100 | 10 to 100 | – | – | – |
| CC(=O)OCOP(=O)(OCOC(C)=O)OC[C@@]1(CF)O[C@@H](n2ccc(=O)[nH]c2=O)[C@](C)(O)[C@@H]1O [Compound 67] | – | 10 to 100 | – | – | – |
| CC(C)C(=O)OCOP(=O)(OCOC(=O)C(C)C)OC[C@@]1(CF)O[C@@H](n2ccc(=O)[nH]c2=O)[C@](C)(O)[C@@H]1O [Compound 70] | 1 to 10 | 1 to 10 | – | – | – |
| CCOC(=O)OCOP(=O)(OCOC(=O)OCC)OC[C@@]1(CF)O[C@@H](n2ccc(=O)n(COC(=O)C(N)C(C)C)c2=O)[C@](C)(O)[C@@H]1O (stereo partly drawn) [Compound 71] | – | – | – | – | EC50 [1]: 1 to 10 µM; EC50 ([2]; Huh-7, 72 h): 1 to 10 µM |
| C=C[C@]1(CO)O[C@@H](n2ccc(N)nc2=O)C(F)(F)[C@@H]1O [Compound 75] | 1 to 10 | – | – | – | EC50 ([2]; Huh-7, 72 h): 10 to 100 µM |
| CC(C)OC(=O)OCOP(=O)(OCOC(=O)OC(C)C)OC[C@@]1(CF)O[C@@H](n2cnc3c(N)ncnc32)[C@](C)(O)[C@@H]1O [Compound 84] | < 1 | 1 to 10 | – | – | – |
| [N-]=[N+]=NC[C@]1(CO)O[C@@H](n2ccc(N)nc2=O)[C@H](F)[C@@H]1O [Compound 106] | 1 to 10 | 10 to 100 | – | – | – |
| CC(C)(CO)C(=O)SCCOP(=O)(NCc1ccccc1)OC[C@@]1(CF)O[C@@H](n2ccc(=O)[nH]c2=O)[C@](C)(O)[C@@H]1O (stereo partly drawn) [Compound 280] | 10 to 100 | 10 to 100 | – | – | – |
| CC(C)OC(=O)OCOP(=O)(OCOC(=O)OC(C)C)OC[C@@]1(CF)O[C@@H](n2ccc(=O)[nH]c2=O)[C@](C)(O)[C@@H]1OC(=O)[C@H](C)N [Compound 281] | – | – | – | – | EC50 [1]: < 1 µM; EC50 ([2]; Huh-7, 72 h): < 1 µM |
| CC(C)OC(=O)OCOP(=O)(OCOC(=O)OC(C)C)OC[C@@]1(CF)O[C@@H](n2ccc(=O)[nH]c2=O)[C@](C)(O)[C@@H]1OC(=O)CN [Compound 282] | – | – | – | – | EC50 [1]: < 1 µM; EC50 ([2]; Huh-7, 72 h): < 1 µM |
| CC(C)OC(=O)[C@H](C)NP(=O)(OCCSC(=O)C(C)(C)CO)OC[C@@]1(CF)O[C@@H](n2ccc(=O)[nH]c2=O)[C@](C)(O)[C@@H]1O (stereo partly drawn) [Compound 283] | 10 to 100 | 1 to 10 | – | – | – |
| CC(C)OC(=O)OCOP(=O)(OCOC(=O)OC(C)C)OC[C@@]1(CF)O[C@@H](n2ccc(=O)n(COP(=O)(O)O)c2=O)[C@](C)(O)[C@@H]1O [Compound 284] | 1 to 10 | 1 to 10 | – | – | – |

| Compound | EC50 [1, 6] [µM] | EC50 [2, 7] [µM] | IC50 [4] [µM] | IC50 [5] [µM] | other results |
| --- | --- | --- | --- | --- | --- |
| CC(C)OC(=O)OCOP(=O)(N[C@@H](C)C(=O)OC(C)C)OC[C@@]1(CF)O[C@@H](n2ccc(=O)[nH]c2=O)[C@](C)(O)[C@@H]1O (stereo partly drawn) [Compound 286] | 1 to 10 | < 1 | – | – | – |
| CC(C)(CO)C(=O)SCCOP(=O)(OCCSC(=O)C(C)(C)CO)OC[C@@]1(CF)O[C@@H](n2ccc(=O)[nH]c2=O)[C@](C)(O)[C@@H]1O [Compound 288] | – | – | – | – | EC50 [1]: 10 to 100 µM; EC50 ([2]; Huh-7, 72 h): 10 to 100 µM |
| Nc1ccn([C@@H]2O[C@H](CO)[C@@H](O)[C@]2(O)CF)c(=O)n1 [Compound 295] | 10 to 100 | 1 to 10 | – | – | – |
| N#C[C@]1(CO)O[C@@H](n2ccc(N)nc2=O)C(F)(F)[C@@H]1O [Compound 298] | 1 to 10 | 10 to 100 | – | – | – |
| C[C@]1(F)[C@H](n2ccc(=O)[nH]c2=O)O[C@](F)(COP(=O)(O)OP(=O)(O)OP(=O)(O)O)[C@H]1O [compound 147] | – | – | – | – | IC50 [3]: < 10 µM |
| C[C@@]1(O)[C@H](O)[C@@](CN=[N+]=[N-])(COP(=O)(O)OP(=O)(O)OP(=O)(O)O)O[C@H]1n1ccc(=O)[nH]c1=O [compound 249] | – | – | < 100 | 10 to 100 | – |
| CC#C[C@@]1(O)[C@H](O)[C@@](CF)(COP(=O)(O)OP(=O)(O)OP(=O)(O)O)O[C@H]1n1ccc(=O)[nH]c1=O [compound 252] | – | – | < 10 | 1 to 10 | – |
| C=CC[C@@]1(O)[C@H](O)[C@@](CF)(COP(=O)(O)OP(=O)(O)OP(=O)(O)O)O[C@H]1n1ccc(=O)[nH]c1=O [compound 253] | – | – | < 10 | 10 to 100 | – |
| C[C@@]1(O)[C@H](O)[C@@](CF)(COP(=O)(O)OP(=O)(O)OP(=O)(O)O)O[C@H]1n1ccc2c(N)ncnc21 [compound 254] | – | – | < 1 | < 1 | – |
| C=C=C[C@@]1(O)[C@H](O)[C@@](CF)(COP(=O)(O)OP(=O)(O)OP(=O)(O)O)O[C@H]1n1ccc(=O)[nH]c1=O [compound 255] | – | – | < 10 | 1 to 10 | – |
| O=c1ccn([C@@H]2O[C@](CF)(COP(=O)(O)OP(=O)(O)OP(=O)(O)O)[C@@H](O)[C@]2(O)CF)c(=O)[nH]1 [compound 256] | – | – | < 10 | 10 to 100 | – |
| Nc1ccn([C@@H]2O[C@](CF)(COP(=O)(O)OP(=O)(O)OP(=O)(O)O)[C@@H](O)[C@]2(O)CF)c(=O)n1 [compound 258] | – | – | < 1 | 10 to 100 | – |
| C[C@]1(O)[C@H](n2ccc(=O)[nH]c2=O)O[C@@](COP(=O)(O)OP(=O)(O)OP(=O)(O)O)(C(F)F)[C@H]1O [compound 273] | – | – | < 10 | 10 to 100 | – |
| Nc1ccn([C@@H]2O[C@H](COP(=O)(O)OP(=O)(O)OP(=O)(O)O)[C@@H](O)[C@]2(O)CF)c(=O)n1 [compound 276] | – | – | < 10 | < 1 | – |
| C[C@]1(COP(=O)(O)OP(=O)(O)OP(=O)(O)O)O[C@@H](n2ccc(N)nc2=O)C(F)(F)[C@@H]1O [compound 277] | – | – | < 10 | 10 to 100 | – |
| Nc1ncnc2c1ncn2[C@@H]1O[C@H](COP(=O)(O)OP(=O)(O)OP(=O)(O)O)[C@@H](O)[C@]1(O)CF [compound 278] | – | – | < 100 | 1 to 10 | – |
| C#C[C@]1(COP(=O)(O)OP(=O)(O)OP(=O)(O)O)O[C@@H](n2ccc(N)nc2=O)C(F)(F)[C@@H]1O [compound 279] | – | – | < 10 | 10 to 100 | – |
| C[C@]1(CO)O[C@@H](n2ccc(N)nc2=O)C(F)(F)[C@@H]1O [compound 300] | < 1 | 10 to 100 | – | – | – |
| Nc1ncnc2c1ncn2[C@@H]1O[C@H](CO)[C@@H](O)[C@]1(O)CF [compound 301] | 10 to 100 | < 1 | – | – | – |
| C=C[C@]1(CO)O[C@@H](n2ccc(N)nc2=O)[C@H](O)[C@@H]1O [compound 303] | 10 to 100 | 1 to 10 | – | – | – |
